Experiments:
HMC-1 cells [1] = assay: Chromatin immunoprecipitation with anti-acetylated histone H3 antibody and PCR of B2M gene, HMC-1 cells; format: cell-based, human; details: 4 mM VPA, 48 hours
Experimental: (§1) Human breast cancer cell lines, that is, MCF-7 cells and HMC-1 cells were used to culture in the presence of 100 nM TSA (Sigma, USA) for 24 hours or 4 mM VPA (Sigma, USA) for 48 hours, respectively followed by extracting chromatin from the cells according to the manufacturer's instructions (Upstate Inc., USA) and immunoprecipitating the chromatin using anti-acetylated histone H3 antibody (Upstate Inc., USA) (see Assam El-Osta, et al. 2002. MOLECULAR AND CELLULAR BIOLOGY 22(6). p. 1844-1857). The genes binding to the acetylated histones were amplified by using PCR with the B2M gene-specific primers ([…] and […]), electrophoresed on 1% agarose gel followed by detecting with a transilluminator in the presence of ethidium bromide.

HMC-1 cells [2] = assay: Flow cytometry of cell surface MHC class I antigen (W6/32 antibody), HMC-1 cells; format: cell-based, human; details: vs non-treated
Experimental: (§2) Using the same cells as those in the examples 1 and 2, MCF-7 cells and HMC-1 cells were cultured for 24 hours in the presence of HDAC inhibitor TSA (100 nM) or for 48 hours in the presence of HDAC inhibitor VPA (4 mM), respectively, and the level of MHC class I antigen expressing on the cell surface was analyzed by a flow cytometer (Becton Dickinson).
(§3) (1) 1×10^6 cells were floated in […] PBS buffer, added a primary antibody (an antipan-HLA class I antibody W6/32 (Barnstable, C. J., Bodmer, W. J., Brown, G., Galfre, G., Milstein, C., Williams, A. F., and Zeigler, A. (1978) Cell 14, 9-20)) and incubated for 40 minutes at 4° C. (2) The cells were washed twice with PBS. (3) To the suspended cell was added a secondary antibody (FITC-labeled anti-mouse IgG antibody (IPL, USA)) and incubated for 40 minutes at 4° C. (4) The cells were washed twice with PBS, floated in PBS added with 1% formalin followed by analyzing FITC level of the cell surface by a flow cytometer.

[3] = system: human breast cancer cell line MCF7 cells transplanted into SCID mice; assay: Immunostaining of MCF7 tumor transplanted into SCID mice after oral VPA; format: in vivo; details: SCID mouse, water containing 0.4% VPA for 10 days, vs control
Experimental: A human breast cancer cell line MCF7 cells were transplanted into SCID mice. […] One mouse was supplied with water containing 0.4% valproic acid (VPA, Sigma) for 10 days, and the other mouse was supplied with water with no additive as control. […] Following the method according to example 4, treatment of tissue slices as well as immunostaining with anti-HLA class I antibody (EMR8-5) and anti-B2M antibody (EMR-B6) were performed.

[4] = system: HIV infection T cells (clone 8E5); assay: Flow cytometry of cell surface HLA class I, HIV infection T cells; format: cell-based; details: HIV infection T cells (8E5), 4 mM valproic acid, 48 hours
Experimental: (§4) HIV infection T cells (clone 8E5, purchased from ATCC) were cultured in 4 mM valproic acid-added culture medium (RPMI1640) or non additive culture medium for 48 hours, and reacted with an anti-pan-HLA class I antibody, W6/32 antibody and with FITC-labeled anti-mouse IgG antibody for 40 minutes respectively, and the cells were fixed in 0.1% formalin/PBS. The fluorescence intensities were measured by flow cytometer (FACScan, Beckton Dickinson).

[5] = system: Papilloma virus persistent infection cells (HeLa cells); assay: Flow cytometry of cell surface HLA class I, papilloma virus persistent infection cells; format: cell-based; details: 4 mM valproic acid, 48 hours
Experimental: as §4, with “Papilloma virus persistent” for “HIV”, “infection” for “infection T”, “(HeLa cells)” for “(clone 8E5, purchased from ATCC)”, “(FACS can,” for “(FACScan,”

[6] = system: EB virus persistent infection B cells (LG2EBV cells); assay: Flow cytometry of cell surface HLA class I, EB virus persistent infection B cells; format: cell-based; details: 4 mM valproic acid, 48 hours
Experimental: (§5) EB virus persistent infection B cells (LG2EBV cells) were cultured in 4 mM valproic acid-added culture medium (RPMI1640) or non additive culture medium for 48 hours, and reacted with an anti-pan-HLA class I antibody, W6/32 antibody and with FITC-labeled anti-mouse IgG antibody for 40 minutes respectively, and the cells were fixed in 0.1% formalin/PBS. The fluorescence intensities were measured by flow cytometer (FACScan, Beckton Dickinson).

[7] = system: Mumps virus persistent infection B cells (Akata-MP1 cells); assay: Flow cytometry of cell surface HLA class I, mumps virus persistent infection B cells; format: cell-based; details: 4 mM valproic acid, 48 hours
Experimental: as §5, with “Mumps” for “EB”, “(Akata-MP1” for “(LG2EBV”

[8] = system: Measles virus persistent infection B cells (Raji-ZH cells); assay: Flow cytometry of cell surface HLA class I, measles virus persistent infection B cells; format: cell-based; details: 4 mM valproic acid, 48 hours
Experimental: as §5, with “Measles” for “EB”, “(Raji-ZH” for “(LG2EBV”

class I and II HDAC = details: Non-patent documents 5 and 6; cited from earlier work
MCF-7 cells [9] = assay: Chromatin immunoprecipitation with anti-acetylated histone H3 antibody and PCR of B2M gene, MCF-7 cells; format: cell-based, human; details: 100 nM TSA, 24 hours
Experimental: as §1

MCF-7 cells [10] = assay: Western blot of intracellular B2M, HLA class I heavy chain and actin, MCF-7 cells; format: cell-based, human; details: TSA 100 nM, 24 hours
Experimental: (§6) (1) Using the same cells as those in the example 1, MCF-7 cells and HMC-1 cells were cultured in the presence of TSA, a HDAC inhibitor, (100 nM) for 24 hours respectively, followed by harvesting them. (2) 1×10^6 cells are lysed in […] cell lysate (RIPA buffer) and a soluble fraction is harvested as a lysate. SDS sample buffer was added to the lysate. (3) The protein samples were loaded on 7.5% SDS polyacrylamide gel and electrophoresed. (4) The proteins in the gel were transferred on a PVDF membrane (Millipore). (5) The transferred membrane was immersed in 5% skim milk in PBS and blocked for about one hour. (6) The transferred membrane was immersed in a primary antibody (anti-pan-HLA class I heavy chain antibody EMR8-5 (Hokudo, Sapporo), or anti-B2M antibody EMRB6 (Hokudo, Sapporo), or anti-actin antibody (DAKO), and incubated for one hour at room temperature. (7) The transferred membrane was washed with a lavage PBS-T (0.05% Tween 20/PBS, pH7.4) three times. (8) The transferred membrane was immersed in a secondary antibody peroxidase-labeled anti-mouse IgG antibody (KPL, USA) and incubated for one hour at room temperature. (9) The transferred membrane was washed with a lavage PBS-T (0.05% Tween 20/PBS, pH7.4) three times. […] (11) Luminescent signals were detected by exposure to X ray film.

HMC-1 cells [11] = assay: Western blot of intracellular B2M, HLA class I heavy chain and actin, HMC-1 cells; format: cell-based, human; details: TSA 100 nM, 24 hours
Experimental: as §6

MCF-7 cells [12] = assay: Flow cytometry of cell surface MHC class I antigen (W6/32 antibody), MCF-7 cells; format: cell-based, human; details: TSA 100 nM, 24 hours, vs non-treated
Experimental: as §2, §3

Compound | B2M gene detected in anti-acetylated histone H3 immunoprecipitate (HMC-1 cells [1]) | increase of MHC class I level of the cell surface (HMC-1 cells [2]; VPA 4 mM, 48 hours) | expression level of B2M in tumor [3] | expression level of HLA class I antigen in tumor [3] | HLA class I level on a cell surface [4] | HLA class I level on a cell surface [5] | HLA class I level on a cell surface [6] | HLA class I level on a cell surface [7] | HLA class I level on a cell surface [8] | HDAC class selectivity (class I and II HDAC) | B2M gene detected in anti-acetylated histone H3 immunoprecipitate (MCF-7 cells [9]) | expression level of intracellular HLA heavy chain and actin proteins (MCF-7 cells [10]) | level of intracellular B2M protein (MCF-7 cells [10]) | expression level of intracellular HLA heavy chain and actin proteins (HMC-1 cells [11]) | level of intracellular B2M protein (HMC-1 cells [11]) | increase of MHC class I level of the cell surface (MCF-7 cells [12]) | increase of MHC class I level of the cell surface (HMC-1 cells [2]; TSA 100 nM, 24 hours)
CCCC(CCC)C(=O)O [VPA, valproic acid] | B2M gene was detected together with acetylated histones | about 10 times | increased compared to control group | increased compared to control group | recovery of expression was observed | recovery of expression was observed | recovery of expression was observed | recovery of expression was observed | recovery of expression was observed | preferably inhibits class I MAC compared with class II HDAC | – | – | – | – | – | – | –
CC(/C=C/C(=O)NO)=C\[C@@H](C)C(=O)c1ccc(N(C)C)cc1 [TSA, tricostatin A] | – | – | – | – | – | – | – | – | – | inhibits class I and II HDAC | B2M gene was detected together with acetylated histones | no great difference | remarkably increased | no great difference | remarkably increased | about 10 times | about 10 times

Source: US20100093862A1, “POTENTIATION OF CELLULAR IMMUNITY USING HISTONE DEACETYLASE (HDAC) INHIBITORS” (Sapporo Medical Univeristy and Japan Science and Technology …, priority 2006, published 2010)
